The target of the experiment is Cav3.2 (Homo sapiens, UniProt O95180). Briefly: Calcium flux FLIPR assay, HEK293 cells recombinantly expressing Cav3.2. In kind it is cell-based. As to conditions: Cav3.2-channel, Ca2+ entry stimulated by 10 mM CaCl2. Summed up: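 Fluo-4-loaded HEK293 cells stably expressing Cav3.2, seeded overnight at 37 °C; compounds diluted in TEAC buffer (pH 7.2) and preincubated 3 min before Ca2+ entry triggered with CaCl2 at 10 mM final. Area under FLIPR fluorescence trace fitted sigmoidally; IC50 relative to vehicle signal.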
Sequence of Cav3.2 (O95180 whole entry, looked up): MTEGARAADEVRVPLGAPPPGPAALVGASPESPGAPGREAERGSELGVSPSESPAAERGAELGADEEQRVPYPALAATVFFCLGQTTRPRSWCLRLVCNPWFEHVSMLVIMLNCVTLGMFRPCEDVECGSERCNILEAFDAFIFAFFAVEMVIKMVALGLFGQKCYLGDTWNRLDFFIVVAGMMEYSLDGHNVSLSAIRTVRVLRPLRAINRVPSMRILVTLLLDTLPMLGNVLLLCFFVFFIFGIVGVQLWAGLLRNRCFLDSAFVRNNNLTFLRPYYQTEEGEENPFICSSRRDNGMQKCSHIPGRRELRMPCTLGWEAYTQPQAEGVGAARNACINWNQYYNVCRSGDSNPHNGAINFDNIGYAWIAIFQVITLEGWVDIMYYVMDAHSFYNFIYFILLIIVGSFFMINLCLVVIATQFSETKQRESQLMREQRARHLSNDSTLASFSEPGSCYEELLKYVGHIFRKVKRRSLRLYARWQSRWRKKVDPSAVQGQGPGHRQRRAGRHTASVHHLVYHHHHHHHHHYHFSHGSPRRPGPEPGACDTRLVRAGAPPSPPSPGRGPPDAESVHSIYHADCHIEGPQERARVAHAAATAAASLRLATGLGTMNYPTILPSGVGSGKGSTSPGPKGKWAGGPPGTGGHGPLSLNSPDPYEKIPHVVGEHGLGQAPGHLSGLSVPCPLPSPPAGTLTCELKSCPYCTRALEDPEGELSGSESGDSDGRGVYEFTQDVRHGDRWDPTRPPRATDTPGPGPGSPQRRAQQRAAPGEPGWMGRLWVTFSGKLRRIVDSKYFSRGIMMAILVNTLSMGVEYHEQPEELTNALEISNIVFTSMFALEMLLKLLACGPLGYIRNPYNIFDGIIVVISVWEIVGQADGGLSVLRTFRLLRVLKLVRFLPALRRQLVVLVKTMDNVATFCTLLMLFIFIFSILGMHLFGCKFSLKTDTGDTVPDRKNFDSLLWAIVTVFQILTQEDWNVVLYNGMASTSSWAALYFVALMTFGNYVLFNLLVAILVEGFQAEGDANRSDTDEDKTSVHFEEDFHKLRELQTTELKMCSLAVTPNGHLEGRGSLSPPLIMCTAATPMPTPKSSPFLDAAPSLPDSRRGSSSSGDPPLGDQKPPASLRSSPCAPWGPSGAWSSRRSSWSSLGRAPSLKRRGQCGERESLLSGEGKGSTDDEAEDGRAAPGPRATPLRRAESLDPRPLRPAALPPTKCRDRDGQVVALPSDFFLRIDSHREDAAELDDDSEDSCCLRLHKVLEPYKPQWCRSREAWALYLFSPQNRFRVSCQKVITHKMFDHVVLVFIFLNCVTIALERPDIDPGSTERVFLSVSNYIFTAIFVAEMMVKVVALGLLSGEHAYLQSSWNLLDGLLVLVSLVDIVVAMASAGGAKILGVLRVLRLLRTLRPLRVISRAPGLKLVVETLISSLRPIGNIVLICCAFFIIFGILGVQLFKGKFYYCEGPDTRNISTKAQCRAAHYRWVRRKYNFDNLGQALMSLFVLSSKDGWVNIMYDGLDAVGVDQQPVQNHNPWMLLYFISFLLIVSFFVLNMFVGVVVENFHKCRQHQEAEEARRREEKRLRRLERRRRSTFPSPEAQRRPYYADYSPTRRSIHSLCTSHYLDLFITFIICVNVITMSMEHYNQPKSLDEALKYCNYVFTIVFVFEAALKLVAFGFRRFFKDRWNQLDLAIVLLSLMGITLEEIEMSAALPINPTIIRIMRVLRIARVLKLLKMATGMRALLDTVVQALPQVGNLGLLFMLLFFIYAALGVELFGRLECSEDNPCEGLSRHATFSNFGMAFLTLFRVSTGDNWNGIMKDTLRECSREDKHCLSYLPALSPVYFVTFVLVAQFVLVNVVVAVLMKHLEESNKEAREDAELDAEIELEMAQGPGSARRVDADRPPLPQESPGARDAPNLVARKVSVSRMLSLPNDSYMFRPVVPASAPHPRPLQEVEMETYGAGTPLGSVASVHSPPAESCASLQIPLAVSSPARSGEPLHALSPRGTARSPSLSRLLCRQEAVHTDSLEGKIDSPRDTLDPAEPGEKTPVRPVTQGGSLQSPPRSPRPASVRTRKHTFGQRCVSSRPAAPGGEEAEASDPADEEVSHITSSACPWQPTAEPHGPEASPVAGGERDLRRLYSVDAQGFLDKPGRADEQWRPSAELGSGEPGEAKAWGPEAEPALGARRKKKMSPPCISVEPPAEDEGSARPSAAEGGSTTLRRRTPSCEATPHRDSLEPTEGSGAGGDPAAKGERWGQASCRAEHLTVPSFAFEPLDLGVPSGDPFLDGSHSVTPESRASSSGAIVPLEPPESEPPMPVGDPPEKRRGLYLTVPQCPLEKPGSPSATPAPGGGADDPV
One may read the IC50 as the point on the concentration scale where inhibition reaches its midpoint. Take `COc1ccc(Cn2ncc(NC(=O)Cc3ccc(C4(C(F)(F)F)CC4)cc3)n2)cc1C#N` [Example 203, N-[2-(3-Cyano-4-methoxy-benzyl)-2H-[1,2,3]triazol-4-yl]-2-[4-(1-trifluoromethyl-cyclopropyl)-phenyl]-acetamide]: the IC50 was found to be 220 nM.

Turning to `Cn1ncc2cc(CC(=O)Nc3cnn(Cc4ccc(OC(F)(F)F)cc4)n3)ccc21` [Example 92, 2-(1-Methyl-1H-indazol-5-yl)-N-[2-(4-trifluoromethoxy-benzyl)-2H-[1,2,3]triazol-4-yl]-acetamide], the IC50 was determined as 9.9 nM.

As for `N#Cc1ccc(Cn2ncc(NC(=O)Cc3ccc(OC4CC(F)(F)C4)cc3)n2)nc1` [Example 246, N-[2-(5-Cyano-pyridin-2-ylmethyl)-2H-[1,2,3]triazol-4-yl]-2-[4-(3,3-difluoro-cyclobutoxy)-phenyl]-acetamide], the IC50 is 680 nM.

`Cc1cc(CC(=O)Nc2cnn(Cc3ccc(C#N)c(F)c3)n2)ccc1OCC(F)(F)F` [Example 199, N-[2-(4-Cyano-3-fluoro-benzyl)-2H-[1,2,3]triazol-4-yl]-2-[3-methyl-4-(2,2,2-trifluoro-ethoxy)-phenyl]-acetamide]: the half-inhibitory concentration (IC50) was found to be 17 nM.

As for `COc1c(F)cc(Cn2ncc(NC(=O)Cc3ccc4c(c3)c(C)cn4C)n2)cc1F` [Example 150, N-[2-(3,5-Difluoro-4-methoxy-benzyl)-2H-[1,2,3]triazol-4-yl]-2-(1,3-dimethyl-1H-indol-5-yl)-acetamide], the IC50 stood at 16 nM.

Turning to `COc1ccc(Cn2ncc(NC(=O)Cc3ccc4c(cnn4C)c3)n2)cc1` [Example 63, N-[2-(4-Methoxy-benzyl)-2H-[1,2,3]triazol-4-yl]-2-(1-methyl-1H-indazol-5-yl)-acetamide], the IC50 came out at 160 nM.

Turning to `COCCOc1ccc(Cn2ncc(NC(=O)Cc3ccc4c(ccn4C)c3)n2)cc1` [Example 87, N-{2-[4-(2-Methoxy-ethoxy)-benzyl]-2H-[1,2,3]triazol-4-yl}-2-(1-methyl-1H-indol-5-yl)-acetamide], the IC50 was 460 nM.

For `COc1cc(Cn2ncc(NC(=O)Cc3ccc(C4(C(F)(F)F)CC4)cc3)n2)ccc1F` [Example 113, N-[2-(4-Fluoro-3-methoxy-benzyl)-2H-[1,2,3]triazol-4-yl]-2-[4-(1-trifluoromethyl-cyclopropyl)-phenyl]-acetamide], the concentration for half-maximal inhibition (IC50) worked out at 230 nM.

On to `COc1ccc(Cn2ncc(NC(=O)Cc3ccc(C4(F)COC4)cc3)n2)cc1C#N` [Example 214, N-[2-(3-Cyano-4-methoxy-benzyl)-2H-[1,2,3]triazol-4-yl]-2-[4-(3-fluoro-oxetan-3-yl)-phenyl]-acetamide], for which the IC50 was 250 nM.

With `CCCn1ncc2cc(CC(=O)Nc3cnn(Cc4ccc(F)c(F)c4)n3)ccc21` [Example 34, N-[2-(3,4-Difluoro-benzyl)-2H-[1,2,3]triazol-4-yl]-2-(1-propyl-1H-indazol-5-yl)-acetamide], the 50% inhibitory concentration (IC50) came out at 18 nM.

As for `O=C(Cc1ccc(N2CCC(F)(F)C2)nc1)Nc1cnn(Cc2ccc(F)cc2)n1` [Example 94, 2-[6-(3,3-Difluoro-pyrrolidin-1-yl)-pyridin-3-yl]-N-[2-(4-fluoro-benzyl)-2H-[1,2,3]triazol-4-yl]-acetamide], the IC50 was found to be 10 nM.

For the origin of these results see patent US10246426B2, “Triazole compounds as T-type calcium channel blockers” (IDORSIA PHARMACEUTICALS LTD, priority 2014, dated 2019).
